pIC50: −log10 of the molar value.

This assay addresses HPK1 (Homo sapiens (Human), UniProt Q92918). The experiment in a line: HPK1 biochemical enzyme assay (microfluidic mobility shift assay). To be noted: ATP 1 mM final concentration; 1.5 nM HPK1; 30 min preincubation; Caliper EZ Reader; read-out: HPK1 1000UMATP caliper IC50. Here is the method:
HPK1 biochemical enzyme assay: HPK1 enzyme inhibition was measured using a microfluidic mobility shift assay. […] Test compounds were titrated in ten point curves (top final assay concentration 3 μM), and preincubated with enzyme/substrate mix for 30 min prior to initiation of the reaction by addition of ATP (1 mM final concentration) and substrate (1 μM final concentration; Carna Biosciences) diluted in assay buffer supplemented by MgCl2 (final assay concentration of 5 mM). Following 60 min incubation at RT, the reaction was terminated by addition of 60 μl/well termination buffer (Carna Biosciences) and signal determination using a Caliper EZ Reader (Perkin Elmer, UK).
The compound numbers correspond to the compound numbers in Table 1.

HPK1, sequence (Q92918 whole entry): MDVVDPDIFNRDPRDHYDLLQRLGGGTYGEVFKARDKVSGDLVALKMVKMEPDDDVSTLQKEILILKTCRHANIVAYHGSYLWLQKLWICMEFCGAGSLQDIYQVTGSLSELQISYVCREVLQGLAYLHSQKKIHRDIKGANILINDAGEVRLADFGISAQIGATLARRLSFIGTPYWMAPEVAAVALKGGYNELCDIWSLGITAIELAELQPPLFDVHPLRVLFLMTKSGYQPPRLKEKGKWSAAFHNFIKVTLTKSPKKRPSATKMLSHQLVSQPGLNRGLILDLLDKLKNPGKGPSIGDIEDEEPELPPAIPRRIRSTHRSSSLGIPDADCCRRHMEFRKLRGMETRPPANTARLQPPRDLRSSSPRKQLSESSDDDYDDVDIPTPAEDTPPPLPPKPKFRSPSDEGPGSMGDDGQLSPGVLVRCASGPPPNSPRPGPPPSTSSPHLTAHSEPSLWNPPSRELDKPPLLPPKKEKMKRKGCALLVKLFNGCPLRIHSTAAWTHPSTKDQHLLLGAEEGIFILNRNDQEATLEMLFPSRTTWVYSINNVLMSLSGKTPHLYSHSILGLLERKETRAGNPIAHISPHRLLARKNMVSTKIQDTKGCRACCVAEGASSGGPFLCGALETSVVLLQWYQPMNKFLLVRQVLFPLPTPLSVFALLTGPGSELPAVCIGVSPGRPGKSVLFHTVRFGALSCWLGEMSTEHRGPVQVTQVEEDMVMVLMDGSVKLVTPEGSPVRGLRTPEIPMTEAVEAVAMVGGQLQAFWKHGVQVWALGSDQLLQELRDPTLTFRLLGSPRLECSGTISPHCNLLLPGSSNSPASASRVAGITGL

`CC(C)(N)[C@H]1CN(c2ccc(Nc3ccc(-c4cnc5cc(F)ccn45)c4c3C(=O)NC4)nc2)CCO1` (single isomer, unassigned) [I-671]: the pIC50 is above 7.00. For the compound `Cc1ccn2c(-c3ccc(Nc4ccc(N5CCOCC5)cn4)c4c3CNC4=O)cnc2c1` [I-145, 4-(7-methylimidazo [1,2-a]pyridin-3-yl)-7-[(5-morpholino-2-pyridyl)amino] isoindolin-1-one], the negative logarithm of the IC50 (pIC50) was above 7.00. On to `O=C1NCc2c(-c3cnc4cc(F)ccn34)ccc(Nc3ccc(N4CCO[C@@H](CNC5CC5)C4)cn3)c21` [I-495, 7-[[5-[(2S)-2-[(cyclopropyl-amino)methyl]morpholin-4-yl]-2-pyridyl]amino]-4-(7-fluoroimidazo [1,2-a]pyridin-3-yl)isoindolin-1-one], for which the pIC50 was above 7.00.

Take `Cn1ccc2c(-c3ncc(Nc4ccc(N5CCC(O)CC5)cn4)c4c3CNC4=O)ccnc21` [I-139, 7-[[5-(4-hydroxy-1-piperidyl)-2-pyridyl]amino]-4-(1-methylpyrrolo [2,3-b]pyridin-4-yl)-2,3-dihydropy-rrolo[3,4-c]pyridin-1-one]: the pIC50 was above 7.00. Under `CO[C@H]1CC[C@H](c2ccc(Nc3ccc(-c4cnc5cc(F)ccn45)c4c3C(=O)NC4)nc2CN(C)C)C1` [I-793, 7-((6-((dimethylamino)-methyl)-5-((1S,3S)-3-methoxycyclo-pentyl)pyridin-2-yl)amino)-4-(7-fluoroimidazo [1,2-a]pyridin-3-yl)isoindolin-1-one] stands above 7.00; under `CN(C)Cc1nc(Nc2ccc(-c3cnc4cc(F)ccn34)c3c2C(=O)NC3)ccc1OCC(F)F` [I-835, 7-((5-(2,2-difluoroethoxy)-6-((dimethylamino)methyl)pyridin-2-yl)amino)-4-(7-fluoroimidazo[1,2-a]pyridin-3-yl)isoindolin-1-one], above 7.00.

With “(R)-7-((5-(2- (methoxymeth- yl)morpholino) pyridin-2- yl)amino)-4- (7- methylimidazo [1,2- a]pyrimidin-3- yl)isoindolin- 1-one [I-628]”, the pIC50 is above 7.00. Regarding `Cn1ccc2c(-c3ncc(Nc4ccc(N5CCOCC5)cn4)c4c3CNC4=O)cccc21` [I-221, 4-(1-methylindol-4-yl)-7-[(5-morpholino-2-pyridyl)amino]-2,3-dihydropy-rrolo[3,4-c]pyridin-1-one], the pIC50 was above 7.00. Under “7-((6-((dimethylamino)methyl)-4-(tetrahydrofuran-2-yl)pyridin-2-yl)amino)-4-(7-fluoroimidazo[1,2-a]pyridin-3-yl)isoindolin-1-one [I-852]” stands above 7.00; under `C[C@H](c1ccc(Nc2ccc(-c3cnc4cc(F)ccn34)c3c2C(=O)NC3)nc1)N(C)C` [I-521, (R)-7-((5-(1-(dimethylamino)-ethyl)pyridin-2-yl)amino)-4-(7-fluoroimidazo [1,2-a]pyridin-3-yl)isoindolin-1-one], above 7.00.
